Where no end group is shown, it is not given here.

The text below walks through data of US9789181B2, “PAN-DR binding polypeptides and uses thereof” (Epimmune Inc., priority 2009, dated 2017).

Assay [1] concerns the target HLA DRB1 *0101 (Homo sapiens, UniProt P01903+P01911, A100R/D57E/F55L/F60I/F76Y/I96L/L162R/M171V/P40L/Q125E/R42F/V115G/Y59C). Kind of assay: IC50nM to purified HLA | DRB1 *0101. How it is done:
(§1) Table printed on a drawing sheet, FIG. 1 (contd.)
Head of the field: IC50nM to purified HLA | DRB1 *0101
(§2) First copying reader's note: Continued from the preceding sheet of FIG. 1; decimal commas are used, the analog names give the substituted residues and positions in PADRE, and some values are printed in italics or bold and some SEQ ID NOs bold and underlined without a legend on this sheet.
Where the first naming reader finds the target: head: IC50nM to purified HLA | DRB1 *0101

Assay [2] deals with HLA DRB1 *0301 (Homo sapiens, UniProt P01903+P01911, A100K/A102G/A103R/A169T/F55Y/I96L/K41T/L162R/M171V/P40S/Q125H/Q178H/Q39Y/R42S/S66N/T106N/T262R/W38E/Y61H). The assay is described as follows: IC50nM to purified HLA | DRB1 *0301. As to the method: as §1
Sequence of HLA DRB1 *0301 (P01903 26-254 limits assumed, other chains not shown): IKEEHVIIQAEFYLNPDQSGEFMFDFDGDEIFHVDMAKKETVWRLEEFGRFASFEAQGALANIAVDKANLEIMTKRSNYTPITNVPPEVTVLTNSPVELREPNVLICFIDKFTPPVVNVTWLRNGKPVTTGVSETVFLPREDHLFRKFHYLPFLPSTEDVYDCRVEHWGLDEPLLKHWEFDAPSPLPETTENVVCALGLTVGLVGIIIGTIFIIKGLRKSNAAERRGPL
Head of the field: IC50nM to purified HLA | DRB1 *0301
as §2
Where the first naming reader finds the target: head: IC50nM to purified HLA | DRB1 *0301

For assay [3], the target named is HLA DRB1 *0401 (Homo sapiens, UniProt P01903+P01911, A100K/A169T/F76Y/I96L/K127E/L162R/M171V/N62H/P40V/Q125Y/R42H/S133A/S149N/S66Y/V115G/V209L/W38E). Kind of assay: IC50nM to purified HLA | DRB1 *0401. As to the method:
as §1
Head of the field: IC50nM to purified HLA | DRB1 *0401
as §2
Where the first naming reader finds the target: head: IC50nM to purified HLA | DRB1 *0401

Assay [4] has as its target HLA DRB1 *0404 (Homo sapiens, UniProt P01903+P01911, A100R/A169T/F76Y/I96L/K127E/L162R/M171V/N62H/P40V/Q125Y/R42H/S133A/S149N/S66Y/V209L/W38E). The assay is described as follows: IC50nM to purified HLA | DRB1 *0404. How it is done:
as §1
Head of the field: IC50nM to purified HLA | DRB1 *0404
as §2
Where the first naming reader finds the target: head: IC50nM to purified HLA | DRB1 *0404

For assay [5], the target named is HLA DRB1 *0802 (Homo sapiens, UniProt P01903+P01911, A100R/A103L/A169T/F76Y/H45Y/I96F/K41T/L162R/M171V/P40S/Q125H/Q178H/Q39Y/Q99D/R218S/R42G/S66Y/V115G/W38E). Kind of assay: IC50nM to purified HLA | DRB1 *0802. As to the method: as §1
Head of the field: IC50nM to purified HLA | DRB1 *0802
as §2
Where the first naming reader finds the target: head: IC50nM to purified HLA | DRB1 *0802

The target of assay [6] is HLA DRB1 *0901 (Homo sapiens, UniProt P01903+P01911, A100R/A103E/D57H/D86V/F55Y/F60I/F76Y/I96F/K127E/L162R/M171V/P40D/Q125H/Q99R/R33Q/R42F/S133A/S66N/T210M/V115G/W38K/Y107V/Y59G/Y89S). The assay is described as follows: IC50nM to purified HLA | DRB1 *0901. As to the method: as §1
Head of the field: IC50nM to purified HLA | DRB1 *0901
as §2
Where the first naming reader finds the target: head: IC50nM to purified HLA | DRB1 *0901

Assay [7] deals with HLA DRB1 *1101 (Homo sapiens, UniProt P01903+P01911, A100R/A169T/A87E/I96F/K41T/L162R/M171V/P40S/Q125H/Q178H/Q39Y/Q99D/R42S/S66Y/T262R/V115G/W38E). The assay is described as follows: IC50nM to purified HLA | DRB1 *1101. As to the method: as §1
Sequence of HLA DRB1 *1101 (P01903 26-254 limits assumed, other chains not shown): as above
Head of the field: IC50nM to purified HLA | DRB1 *1101
as §2
Where the first naming reader finds the target: head: IC50nM to purified HLA | DRB1 *1101

In assay [8] the target is HLA DRB1 *1501 (Homo sapiens, UniProt P01903+P01911). The assay is described as follows: IC50nM to purified HLA | DRB1 *1501. As to the method:
as §1
Head of the field: IC50nM to purified HLA | DRB1 *1501
as §2
Where the first naming reader finds the target: head: IC50nM to purified HLA | DRB1 *1501

In assay [9] the target is HLA DRB1 *0405 (Homo sapiens, UniProt P01903+P01911, A100R/A169T/D86S/F76Y/I96L/K127E/L162R/M171V/N62H/P40V/Q125Y/R42H/S133A/S149N/S66Y/V115G/V209L/W38E). Kind of assay: IC50nM to purified HLA | DRB1 *0405. How it is done:
as §1
Head of the field: IC50nM to purified HLA | DRB1 *0405
as §2
Where the first naming reader finds the target: head: IC50nM to purified HLA | DRB1 *0405

The target in assay [10] is HLA DRB1 *0701 (Homo sapiens, UniProt P01903+P01911, A100R/A102G/A103Q/D57E/D86V/E43K/F76Y/K127E/L162R/M171V/P40G/Q125H/Q99D/R33Q/R42Y/R54Q/S133A/S66F/T210M/V115G/Y107V/Y59L/Y89S). Kind of assay: IC50nM to purified HLA | DRB1 *0701. As to the method:
as §1
Head of the field: IC50nM to purified HLA | DRB1 *0701
as §2
Where the first naming reader finds the target: head: IC50nM to purified HLA | DRB1 *0701

Assay [11] concerns the target HLA DRB4 *0101 (Homo sapiens, UniProt P01903+P13762, G164S). The assay is described as follows: IC50nM to purified HLA | DRB4 *0101. As to the method:
as §1
Head of the field: IC50nM to purified HLA | DRB4 *0101
as §2
Where the first naming reader finds the target: head: IC50nM to purified HLA | DRB4 *0101

Assay [12] addresses HLA DRB1 *1302 (Homo sapiens, UniProt P01903+P01911, A100E/A169T/K41T/L162R/M171V/P40S/Q125H/Q178H/Q39Y/Q99D/R42S/S66N/T262R/V115G/W38E/Y61H). The assay is described as follows: IC50nM to purified HLA | DRB1 *1302. How it is done: as §1
Head of the field: IC50nM to purified HLA | DRB1 *1302
as §2
Where the first naming reader finds the target: head: IC50nM to purified HLA | DRB1 *1302

The target of assay [13] is HLA DRB5 *0101 (Homo sapiens, UniProt P01903+Q30154). The assay is described as follows: IC50nM to purified HLA | DRB5 *0101. As to the method: as §1
Head of the field: IC50nM to purified HLA | DRB5 *0101
as §2
Where the first naming reader finds the target: head: IC50nM to purified HLA | DRB5 *0101

Sequence of HLA DRB1 *1302 (P01903 26-254 limits assumed, other chains not shown): as above
Sequence of HLA DRB4 *0101 (P01903 26-254 limits assumed): as the sequence (P01903 26-254 limits assumed, other chains not shown) above
Sequence of HLA DRB4 *0101 (P13762 whole entry G164S): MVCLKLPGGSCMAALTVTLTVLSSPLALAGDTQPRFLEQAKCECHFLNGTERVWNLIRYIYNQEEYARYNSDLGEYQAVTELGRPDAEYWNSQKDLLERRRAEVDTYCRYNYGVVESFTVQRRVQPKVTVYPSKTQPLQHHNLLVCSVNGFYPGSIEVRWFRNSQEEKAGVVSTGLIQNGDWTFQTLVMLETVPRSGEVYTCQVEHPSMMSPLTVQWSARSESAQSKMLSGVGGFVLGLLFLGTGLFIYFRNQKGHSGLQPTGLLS

With AAADFVAAYTLHAAA [SEQ ID NO: 42], the IC50 (as a rule, the midpoint of a concentration-inhibition curve) in assay [1] was 4.8 nM; in assay [2], 286 nM; in assay [3] it was 4.5 nM; in assay [4], 5.3 nM; in assay [5], 14 nM; in assay [6] it was 32 nM. Also, the half-inhibitory concentration (IC50) in assay [7] is 40 nM; in [8] it was 19 nM; in [9], 21 nM; in [10], 182 nM.

On to AAAHFVAAWTLKAEA [SEQ ID NO: 36], for which the half-maximal inhibitory concentration (IC50) stood at 5.1 nM in assay [1]; 6.4 nM in assay [3]; 22 nM in assay [5]; 44 nM in assay [6]; 53 nM in [7]; 20 nM in [8]. For the same sequence, the IC50 was 677 nM in [11], 1100 nM in [12] and 18 nM in assay [13].

As to AAAHFVAAFTLHAAA [SEQ ID NO: 28], the IC50 in [1] amounted to 4 nM; in [2] it was 228 nM; in assay [3], 2.2 nM; in assay [4] it was 3.1 nM; in assay [5], 11 nM; in assay [6], 24 nM. For the same sequence, the results for the IC50 in assay [7], in [8] and in assay [11] were 8.1 nM, 13 nM and 100 nM, respectively.

Consider AAAHFVAAFTLKAEA [SEQ ID NO: 38], for which the IC50 in [3] is 6.4 nM; in assay [4] it was 8.1 nM; in assay [5], 19 nM; in assay [6], 46 nM; in [7], 41 nM; in assay [8], 31 nM. In addition, the concentration for half-maximal inhibition (IC50) came to 8.1 nM in [9], 801 nM in [12] and 19 nM in assay [13].

For AAADFVAAWTLHAAA [SEQ ID NO: 41], the IC50 in assay [1] was 4.9 nM; in assay [2], 249 nM; in [3] it was 5.3 nM; in [4], 7.1 nM; in [5], 24 nM; in assay [6], 40 nM. Moreover, the half-maximal inhibitory concentration (IC50) in assay [7] came to 28 nM; in assay [8] it was 89 nM; in [9] it was 27 nM; in assay [10], 152 nM.

As for AAAKFVAAWTLKADA [SEQ ID NO: 30], the 50% inhibitory concentration (IC50) turned out to be 5 nM in assay [1]; 1160 nM in assay [2]; 7.3 nM in [3]; 9.7 nM in [4]; 27 nM in [6]; 19 nM in [8]. Further, the values for the IC50 in assay [9], in assay [12] and in assay [13] were 17 nM, 807 nM and 19 nM, respectively.

For AAAKFVAAWTLKAEA [SEQ ID NO: 35], the IC50 worked out at 6.5 nM in assay [3]; 21 nM in assay [5]; 41 nM in assay [6]; 36 nM in assay [7]; 23 nM in [8]; 710 nM in [11]. The half-maximal inhibitory concentration (IC50) in [9] amounted to 8.4 nM; in [13] it was 17 nM.

With AAANFVAAYTLHAAA [SEQ ID NO: 52], the IC50 in assay [1] stood at 2.7 nM; in assay [2], 171 nM; in [7] it was 16 nM; in assay [8], 4.2 nM; in assay [9], 19 nM; in assay [10] it was 67 nM. The same sequence gave an IC50 in assay [12] of 1420 nM.

For the sequence AAAHFVAAWTLKADA [SEQ ID NO: 31], the 50% inhibitory concentration (IC50) turned out to be 5.1 nM in assay [1]; 8.5 nM in assay [3]; 7.1 nM in [4]; 24 nM in [5]; 2100 nM in assay [11]; 16 nM in [9]. Moreover, the IC50 in assay [12] is 875 nM; in assay [13], 23 nM.

On to AAAHFVAAYTLKAEA [SEQ ID NO: 37], for which the 50% inhibitory concentration (IC50) in assay [1] is 6.9 nM; in assay [3], 7.5 nM; in assay [4] it was 5.3 nM; in assay [6], 35 nM; in assay [7], 44 nM; in [8] it was 10 nM. Further, the IC50 was found to be 721 nM in assay [11], 11 nM in assay [9], 1010 nM in [12] and 16 nM in assay [13].

For AAAHFVAANTLKAEA [SEQ ID NO: 39], the concentration for half-maximal inhibition (IC50) was 7.1 nM in assay [1]; 12 nM in [3]; 14 nM in assay [4]; 64 nM in assay [5]; 941 nM in [11]; 36 nM in assay [9]. The half-maximal inhibitory concentration (IC50) was 83 nM in assay [10] and 234 nM in assay [12].

As to AAAEFVAAWTLKAAA [SEQ ID NO: 45], the 50% inhibitory concentration (IC50) came out at 2.5 nM in [1]; 169 nM in assay [2]; 3.8 nM in assay [3]; 2.8 nM in assay [4]; 16 nM in [5]; 41 nM in [6]. The IC50 in assay [7] was 45 nM; in assay [8], 56 nM; in assay [11], 332 nM; in assay [9], 9.8 nM; in assay [12], 840 nM; in assay [13], 6.7 nM.

As to AAANFVAAWTLKAAA [SEQ ID NO: 50], the IC50 in assay [1] is 4.4 nM; in [2] it was 372 nM; in [4] it was 5.9 nM; in assay [5] it was 8.5 nM; in [7], 14 nM; in assay [8], 12 nM. The half-inhibitory concentration (IC50) in [9] was determined as 18 nM; in [13], 8.7 nM.
